Reference: patent publication US8883833B2, “Substituted benzoazole PDE4 inhibitors for treating inflammatory, cardiovascular and CNS disorders” (Decode Genetics EHF, priority 2007, dated 2014)

Legend:
Assay type in all cases: biochemical
human PDE4B isozyme = human PDE4B isozyme (Homo sapiens, UniProt Q07343); assay: IC50 for human PDE4B isozyme (Table 5); conditions: read-out: IC50 for human PDE4B isozyme, hPDE4B
Experimental: (§1) In-vitro assay for PDE4 enzymes. The in-vitro activity of PDE4 enzymes and the in-vitro potency of therapeutic agents described in the present invention was measured using a real-time, enzyme-coupled spectrophotometric assay. By using three different coupling enzymes, the product of the PDE4 reaction is coupled to the oxidation of the reduced form β-nicotinamide adenine dinucleotide (NADH), which dissipation can be monitored spectrophotmetrically at […]. Assay description. Buffer A containing 50 mM Tris, pH 8.0, 16 mM MgCl2 and 80 mM KCl is prepared and stored at room temperature. Buffer B containing 50 mM Tris, pH 8.0 is prepared and stored at toom temperature. Stock solutions of the following reagents are prepared in Buffer B and stored at −20° C.: Adenosine-5′-triphosphate (ATP), cyclic adenosine-5′-monophosphate (cAMP), phosphoenolpyruvate (PEP) and NADH. An assay mix is prepared by mixing Buffer A, […] (TCEP), ATP, PEP, NADH, myokinase (MK), pyruvate kinase (PK), lactate dehydroganese (LDH) and PDE4 to a final volume of 20 mL, which is enough for a single 96-well assay plate. Assay mix (180 μL) and test article (10 μL) in 1:1 DMSO/H2O mixture is pre-incubated at room temperature for 10 min. The enzymatic reaction is initiated by addition of cAMP (10 μL). Final concentration of all components in the assay (200 μL/well) are as follows: 10 mM MgCl2, 50 mM KCl, 5 mM TCEP, 2.5% DMSO, 0.4 mM NADH, 1 mM PEP, 0.04 mM ATP, 5 units MK, 1 unit PK, 1 unit LDH and appropriate amount of PDE4. Reaction progress curves are monitored in a plate reader capable of measuring light absorbance at 340 nm. A decrease in light absorbance at 340 nm is due to oxidation of NADH. Positive controls containing no test article and negative controls containing no test article and no cAMP are included on every assay plate. Reaction rates are determined from the slopes of the linear portions of the progress curves. All data is percent normalized with respect to controls and presented as percent inhibition.

human PDE4D isozyme = human PDE4D isozyme (Homo sapiens, UniProt Q08499); assay: IC50 for human PDE4D isozyme (Table 4); conditions: read-out: IC50 for human PDE4D isozyme, hPDE4D
Sequence of human PDE4D isozyme (Q08499 whole entry): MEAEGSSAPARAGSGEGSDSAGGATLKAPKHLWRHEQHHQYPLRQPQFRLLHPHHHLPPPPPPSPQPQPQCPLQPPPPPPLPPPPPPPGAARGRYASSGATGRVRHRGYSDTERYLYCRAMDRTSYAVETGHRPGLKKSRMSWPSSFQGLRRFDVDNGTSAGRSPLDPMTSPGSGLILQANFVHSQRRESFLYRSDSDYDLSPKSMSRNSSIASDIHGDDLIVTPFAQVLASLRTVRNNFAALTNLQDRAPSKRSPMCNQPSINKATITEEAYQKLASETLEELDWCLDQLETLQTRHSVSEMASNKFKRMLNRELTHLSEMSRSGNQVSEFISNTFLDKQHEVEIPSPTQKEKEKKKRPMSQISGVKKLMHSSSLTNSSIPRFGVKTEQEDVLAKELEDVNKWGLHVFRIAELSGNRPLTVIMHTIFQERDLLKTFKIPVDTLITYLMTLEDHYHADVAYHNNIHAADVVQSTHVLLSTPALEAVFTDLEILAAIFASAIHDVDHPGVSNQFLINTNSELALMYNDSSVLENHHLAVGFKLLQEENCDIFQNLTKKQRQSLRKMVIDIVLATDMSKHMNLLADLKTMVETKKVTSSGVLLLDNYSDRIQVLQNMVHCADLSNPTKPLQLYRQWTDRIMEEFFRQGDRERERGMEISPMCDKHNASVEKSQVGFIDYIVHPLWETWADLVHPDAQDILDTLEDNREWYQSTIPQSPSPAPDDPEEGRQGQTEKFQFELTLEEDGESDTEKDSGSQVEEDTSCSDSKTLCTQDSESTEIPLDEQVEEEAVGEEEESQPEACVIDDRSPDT
Experimental: as §1

h4B1 = h4B1 (Homo sapiens, UniProt Q07343); assay: In-vitro assay for PDE4 enzymes, real-time enzyme-coupled spectrophotometric assay (Table 3)
Sequence of h4B1 (Q07343 whole entry): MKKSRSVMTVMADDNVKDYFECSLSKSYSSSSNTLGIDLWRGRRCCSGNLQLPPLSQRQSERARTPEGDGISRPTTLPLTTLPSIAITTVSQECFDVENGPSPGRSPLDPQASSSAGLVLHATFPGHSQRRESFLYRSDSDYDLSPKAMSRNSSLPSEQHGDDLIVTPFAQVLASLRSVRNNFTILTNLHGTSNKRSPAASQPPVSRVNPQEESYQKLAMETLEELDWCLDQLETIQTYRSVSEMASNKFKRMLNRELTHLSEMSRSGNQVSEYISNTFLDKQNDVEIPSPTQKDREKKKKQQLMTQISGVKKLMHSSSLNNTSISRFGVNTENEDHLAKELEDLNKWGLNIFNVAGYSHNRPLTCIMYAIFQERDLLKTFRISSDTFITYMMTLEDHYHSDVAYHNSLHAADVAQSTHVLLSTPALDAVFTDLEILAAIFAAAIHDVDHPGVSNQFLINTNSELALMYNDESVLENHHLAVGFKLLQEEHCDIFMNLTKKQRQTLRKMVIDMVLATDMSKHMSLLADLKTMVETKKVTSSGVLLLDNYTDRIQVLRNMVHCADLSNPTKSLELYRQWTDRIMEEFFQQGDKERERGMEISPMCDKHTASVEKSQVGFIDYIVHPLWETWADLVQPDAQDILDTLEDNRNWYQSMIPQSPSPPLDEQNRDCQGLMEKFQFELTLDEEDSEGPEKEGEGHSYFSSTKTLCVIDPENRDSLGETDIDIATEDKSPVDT
Experimental: as §1

h4D7 = h4D7 (Homo sapiens, UniProt Q08499); assay: as above
Sequence of h4D7 (Q08499 1-748 isoform Q08499-11): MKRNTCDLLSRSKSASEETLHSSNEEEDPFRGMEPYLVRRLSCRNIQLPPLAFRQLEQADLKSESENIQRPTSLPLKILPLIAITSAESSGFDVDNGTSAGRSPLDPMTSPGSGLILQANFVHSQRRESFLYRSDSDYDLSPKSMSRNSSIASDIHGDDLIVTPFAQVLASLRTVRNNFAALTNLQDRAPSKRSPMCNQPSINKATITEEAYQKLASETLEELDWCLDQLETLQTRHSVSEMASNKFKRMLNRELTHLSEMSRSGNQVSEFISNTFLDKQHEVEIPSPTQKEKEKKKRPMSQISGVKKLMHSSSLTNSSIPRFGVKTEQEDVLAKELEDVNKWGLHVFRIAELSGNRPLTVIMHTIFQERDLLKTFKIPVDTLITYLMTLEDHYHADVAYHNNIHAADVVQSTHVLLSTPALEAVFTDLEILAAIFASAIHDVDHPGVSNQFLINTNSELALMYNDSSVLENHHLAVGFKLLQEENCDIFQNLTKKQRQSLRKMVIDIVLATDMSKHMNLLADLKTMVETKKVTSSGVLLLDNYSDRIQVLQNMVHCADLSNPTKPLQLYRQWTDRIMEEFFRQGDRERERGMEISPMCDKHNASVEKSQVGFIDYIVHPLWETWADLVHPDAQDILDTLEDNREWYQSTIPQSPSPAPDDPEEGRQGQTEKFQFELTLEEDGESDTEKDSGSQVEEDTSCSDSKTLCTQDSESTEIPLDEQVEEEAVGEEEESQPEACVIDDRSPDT
Experimental: as §1

Sequence of human PDE4B isozyme (Q07343 whole entry): as the sequence (Q07343 whole entry) above

## Oc1cccc(Cc2cc3scnc3c(-c3cccc(Cl)c3)c2F)c1 [BA-39, 3-[4-(3-chloro-phenyl)-5-fluoro-benzothiazol-6-ylmethyl]-phenol]
Human PDE4B isozyme
  IC50: < 5 µM
Human PDE4D isozyme
  IC50: < 5 µM

## CCOC(=O)Nc1ccc(Cc2cc3scnc3c(-c3cccc(Cl)c3)c2F)cn1 [BA-40, {5-[4-(3-chloro-phenyl)-5-fluoro-benzothiazol-6-ylmethyl]-pyridin-2-yl}-carbamic acid ethyl ester]
Human PDE4B isozyme
  IC50: < 5 µM
Human PDE4D isozyme
  IC50: < 5 µM

## Fc1c(CN2CCOCC2)cc2scnc2c1-c1cccc(Cl)c1 [BA-43, 4-(3-Chloro-phenyl)-5-fluoro-6-morpholin-4-ylmethyl-benzothiazole]
Human PDE4B isozyme
  IC50: < 5 µM
Human PDE4D isozyme
  IC50: < 5 µM

## CC(=O)N1CCN(Cc2cc3scnc3c(-c3cccc(Cl)c3)c2F)CC1 [BA-44, 1-{4-[4-(3-Chloro-phenyl)-5-fluoro-benzothiazol-6-ylmethyl]-piperazin-1-yl}-ethanone]
Human PDE4B isozyme
  IC50: 5 to 20 µM
Human PDE4D isozyme
  IC50: < 5 µM

## CCOC(=O)NC1CCN(Cc2cc3scnc3c(-c3cccc(Cl)c3)c2F)CC1 [BA-45, {1-[4-(3-Chloro-phenyl)-5-fluoro-benzothiazol-6-ylmethyl]-piperidin-4-yl}-carbamic acid ethyl ester]
Human PDE4B isozyme
  IC50: 5 to 20 µM
Human PDE4D isozyme
  IC50: < 5 µM

## NC(=O)NC1CCN(Cc2cc3scnc3c(-c3cccc(Cl)c3)c2F)CC1 [BA-46, [1-[4-(3-Chloro-phenyl)-5-fluoro-benzothiazol-6-ylmethyl]-piperidin-4-yl]-urea]
Human PDE4B isozyme
  IC50: 5 to 20 µM
Human PDE4D isozyme
  IC50: < 5 µM

## Fc1c(CN2CCNCC2)cc2scnc2c1-c1cccc(Cl)c1 [BA-48, 4-(3-Chloro-phenyl)-5-fluoro-6-piperazin-1-ylmethyl-benzothiazole]
Human PDE4B isozyme
  IC50: 5 to 20 µM
Human PDE4D isozyme
  IC50: < 5 µM

## CCOC(=O)N1CCN(Cc2cc3scnc3c(-c3cccc(Cl)c3)c2F)CC1 [BA-49, 4-[4-(3-Chloro-phenyl)-5-fluoro-benzothiazol-6-ylmethyl]-piperazine-1-carboxylic acid ethyl ester]
Human PDE4B isozyme
  IC50: < 5 µM
Human PDE4D isozyme
  IC50: < 5 µM

## CCNC(=O)N1CCN(Cc2cc3scnc3c(-c3cccc(Cl)c3)c2F)CC1 [BA-52, 4-[4-(3-chloro-phenyl)-5-fluoro-benzothiazol-6-ylmethyl]-piperazine-1-carboxylic acid ethylamide]
Human PDE4B isozyme
  IC50: 20 to 40 µM
Human PDE4D isozyme
  IC50: < 5 µM

## CCNC(=O)Nc1ccc(Cc2cc3scnc3c(-c3cccc(C#N)c3)c2F)cn1 [BA-53, 1-{5-[4-(3-cyano-phenyl)-5-fluoro-benzothiazol-6-ylmethyl]-pyridin-2-yl}-3-ethyl-urea]
Human PDE4B isozyme
  IC50: < 5 µM
Human PDE4D isozyme
  IC50: < 5 µM

## O=C1CCCN1Cc1cc2scnc2c(-c2cccc(Cl)c2)c1F [BA-54, 1-[4-(3-Chloro-phenyl)-5-fluoro-benzothiazol-6-ylmethyl]-pyrrolidin-2-one]
Human PDE4B isozyme
  IC50: < 5 µM
Human PDE4D isozyme
  IC50: < 5 µM

## CN(C)c1ccc(Cc2cc3scnc3c(-c3cccc(Cl)c3)c2F)cn1 [BA-55, {5-[4-(3-chloro-phenyl)-5-fluoro-benzothiazol-6-ylmethyl]-pyridin-2-yl}-dimethyl-amine]
Human PDE4B isozyme
  IC50: < 5 µM
Human PDE4D isozyme
  IC50: < 5 µM

## CN(C)c1ccc(Cc2cc(-c3cccc(Cl)c3)c3ncsc3c2)cn1 [BA-58, {5-[4-(3-chloro-phenyl)-benzothiazol-6-ylmethyl]-pyridin-2-yl}-dimethyl-amine]
Human PDE4B isozyme
  IC50: < 5 µM
Human PDE4D isozyme
  IC50: < 5 µM

## Clc1cccc(-c2cc(Cc3ccc(N4CCCC4)nc3)cc3scnc23)c1 [BA-59, 4-(3-chloro-phenyl)-6-(6-pyrrolidin-1-yl-pyridin-3-ylmethyl)-benzothiazole]
Human PDE4B isozyme
  IC50: 20 to 40 µM
Human PDE4D isozyme
  IC50: < 5 µM

## N#Cc1ccc(Cc2cc3scnc3c(-c3cccc(Cl)c3)c2F)cn1 [BA-60, 5-[4-(3-chloro-phenyl)-5-fluoro-benzothiazol-6-ylmethyl]-pyridine-2-carbonitrile]
Human PDE4B isozyme
  IC50: < 5 µM
Human PDE4D isozyme
  IC50: < 5 µM

## Fc1c(Cc2ccc(N3CCC3)nc2)cc2scnc2c1-c1cccc(Cl)c1 [BA-61, 6-(6-azetidin-1-yl-pyridin-3-ylmethyl)-4-(3-chloro-phenyl)-5-fluoro-benzothiazole]
Human PDE4B isozyme
  IC50: < 5 µM
Human PDE4D isozyme
  IC50: < 5 µM

## Nc1ccc(Cc2cc3scnc3c(-c3cccc(Cl)c3)c2F)cn1 [BA-63, 5-[4-(3-chloro-phenyl)-5-fluoro-benzothiazol-6-ylmethyl]-pyridin-2-ylamine]
Human PDE4B isozyme
  IC50: < 5 µM
Human PDE4D isozyme
  IC50: < 5 µM

## CN(C)CC(=O)Nc1ccc(Cc2cc3scnc3c(-c3cccc(Cl)c3)c2F)cn1 [BA-64, N-{5-[4-(3-chloro-phenyl)-5-fluoro-benzothiazol-6-ylmethyl]-pyridin-2-yl}-2-dimethylamino-acetamide]
Human PDE4B isozyme
  IC50: < 5 µM
Human PDE4D isozyme
  IC50: < 5 µM

## CCNC(=O)Nc1ccc(Cc2cc(-c3cccc(Cl)c3)c3nc(C)sc3c2)cn1 [BA-67, 1-{5-[4-(3-chloro-phenyl)-2-methyl-benzothiazol-6-ylmethyl]-pyridin-2-yl}-3-ethyl-urea]
Human PDE4B isozyme
  IC50: < 5 µM
Human PDE4D isozyme
  IC50: < 5 µM

## O=C1CN(Cc2cc3scnc3c(-c3cccc(Cl)c3)c2F)CCN1 [BA-71, 4-[4-(3-Chloro-phenyl)-5-fluoro-benzothiazol-6-ylmethyl]-piperazin-2-one]
Human PDE4B isozyme
  IC50: < 5 µM
Human PDE4D isozyme
  IC50: < 5 µM

## CCNC(=O)N1CCN(Cc2cc3scnc3c(-c3cccc(Cl)c3)c2F)C(=O)C1 [BA-72, 4-[4-(3-Chloro-phenyl)-5-fluoro-benzothiazol-6-ylmethyl]-3-oxo-piperazine-1-carboxylic acid ethylamide]
Human PDE4B isozyme
  IC50: < 5 µM
Human PDE4D isozyme
  IC50: < 5 µM

## O=C1CNCCN1Cc1cc2scnc2c(-c2cccc(Cl)c2)c1F [BA-73, 1-[4-(3-Chloro-phenyl)-5-fluoro-benzothiazol-6-ylmethyl]-piperazin-2-one]
Human PDE4B isozyme
  IC50: < 5 µM
Human PDE4D isozyme
  IC50: < 5 µM

## NC(=O)[C@@H]1CCN1c1ccc(Cc2cc3scnc3c(-c3cccc(Cl)c3)c2F)cn1 [BA-74, (S)-1-{5-[4-(3-chloro-phenyl)-5-fluoro-benzothiazol-6-ylmethyl]-pyridin-2-yl}-azetidine-2-carboxylic acid amide]
Human PDE4B isozyme
  IC50: < 5 µM
Human PDE4D isozyme
  IC50: < 5 µM

## NC(=O)[C@H]1CCN1c1ccc(Cc2cc3scnc3c(-c3cccc(Cl)c3)c2F)cn1 [BA-75, (R)-1-{5-[4-(3-chloro-phenyl)-5-fluoro-benzothiazol-6-ylmethyl]-pyridin-2-yl}-azetidine-2-carboxylic acid amide]
Human PDE4B isozyme
  IC50: < 5 µM
Human PDE4D isozyme
  IC50: < 5 µM

## Nc1nc2c(-c3cccc([N+](=O)[O-])c3)cc(Cc3ccc(F)cc3)cc2s1 [Example 1, 6-(4-fluorobenzyl)-4-(3-nitrophenyl)-benzothiazol-2-yl amine]
h4B1
  IC50: 1 to 10 µM
h4D7
  IC50: < 1 µM

## Nc1nc2c(-c3cccc([N+](=O)[O-])c3)cc(Cn3ccnc3)cc2s1 [Example 2, 6-imidazol-1-ylmethyl-4-(3-nitro-phenyl)-benzothiazol-2-ylamine]
h4B1
  IC50: < 1 µM
h4D7
  IC50: < 1 µM

## Nc1nc2c(-c3ccc4nonc4c3)cc(Cc3ccc(F)cc3)cc2s1 [Example 3, 4-Benzol[1,2,5]oxadiazol-5-yl-6-(4-fluoro-benzyl)-benzothiazol-2-yl amine]
h4B1
  IC50: 1 to 10 µM
h4D7
  IC50: < 1 µM

## Nc1nc2c(-c3ccc4c(c3)OCO4)cc(Cc3ccc(F)cc3)cc2s1 [Example 4, 4-Benzo[1,3]dioxol-5-yl-6-(4-fluoro-benzyl)-benzothiazol-2-ylamine]
h4B1
  IC50: 1 to 10 µM
h4D7
  IC50: < 1 µM

## Nc1nc2c(-c3ccc4c(c3)OCO4)cc(C(O)c3ccc(F)cc3)cc2s1 (stereo not drawn) [Example 5, (2-Amino-4-benzo[1,3]dioxol-5-yl-benzothiazol-6-yl)-(4-fluoro-phenyl)-methanol]
h4D7
  IC50: 1 to 10 µM

## Cn1nccc1C(O)c1cc(-c2ccc3c(c2)OCO3)c2nc(N)sc2c1 (stereo not drawn) [Example 6, (2-Amino-4-benzo[1,3]dioxol-5-yl-benzothiazol-6-yl)-(2-methyl-2H-pyrazol-3-yl)-methanol]
h4B1
  IC50: 10 to 20 µM
h4D7
  IC50: 1 to 10 µM

## Nc1nc2c(-c3cccc(C(F)(F)F)c3)cc(Cc3ccc(F)cc3)cc2s1 [Example 7, 6-(4-Fluoro-benzyl)-4-(3-trifluoromethyl-phenyl)-benzothiazol-2-ylamine]
h4B1
  IC50: 1 to 10 µM
h4D7
  IC50: < 1 µM

## Nc1ccc(Cc2cc3sc(N)nc3c(-c3cccc(Cl)c3)c2F)cc1 [Example 16, 6-(4-amino-benzyl)-4-(3-chloro-phenyl)-5-fluoro-benzothiazol-2-ylamine]
h4D7
  IC50: < 1 µM

## NC(=O)NC1CCN(Cc2cc3scnc3c(-c3cccc(Cl)c3)c2F)CC1 [Example 46, [1-[4-(3-Chloro-phenyl)-5-fluoro-benzothiazol-6-ylmethyl]-piperidin-4-yl]-urea]
h4D7
  IC50: 1 to 10 µM
